Assay results: patent EP0570196B1, “Oxime derivatives” (ZENECA LIMITED, priority 1992, dated 1993)

Key:
5-LO [1] = assay: Test c): in vivo zymosan-induced LTB₄ liberation in a subcutaneous air pouch of male rats; conditions: rat air pouch, 3 hours
5-LO [2] = biological target: T1, 5-LO (Homo sapiens, UniProt P09917); assay: Test a): in vitro heparinised human blood challenged with calcium ionophore A23187, radioimmunoassay of LTB₄; assay type: cell-based; conditions: heparinised human blood, A23187 challenge; read-out: IC₅₀ against LTB₄ in test a)
T1 construct: incubating a test compound with heparinised human blood, prior to challenge with the calcium ionophore A23187; endogenous in cells; host or cells: heparinised human whole blood (blood cells)
T1 sequence (P09917 1-674): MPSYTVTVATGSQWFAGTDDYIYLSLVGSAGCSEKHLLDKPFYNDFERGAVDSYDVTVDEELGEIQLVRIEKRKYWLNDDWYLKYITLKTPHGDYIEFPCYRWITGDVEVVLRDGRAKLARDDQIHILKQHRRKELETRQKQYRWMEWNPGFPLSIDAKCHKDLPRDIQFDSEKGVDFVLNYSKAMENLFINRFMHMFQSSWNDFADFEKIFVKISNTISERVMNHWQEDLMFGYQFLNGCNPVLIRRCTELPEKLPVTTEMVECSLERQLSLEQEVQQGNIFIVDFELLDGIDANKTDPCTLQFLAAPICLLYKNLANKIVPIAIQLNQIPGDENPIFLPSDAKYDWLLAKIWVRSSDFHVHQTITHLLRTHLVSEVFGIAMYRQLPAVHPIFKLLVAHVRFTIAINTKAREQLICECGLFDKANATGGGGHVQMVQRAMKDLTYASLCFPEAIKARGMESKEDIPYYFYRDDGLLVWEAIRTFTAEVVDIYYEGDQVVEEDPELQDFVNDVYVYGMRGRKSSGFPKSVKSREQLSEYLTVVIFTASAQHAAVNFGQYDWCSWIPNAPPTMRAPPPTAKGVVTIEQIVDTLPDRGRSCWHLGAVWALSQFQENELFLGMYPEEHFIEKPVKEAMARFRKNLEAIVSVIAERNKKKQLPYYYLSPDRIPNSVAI
Text: As stated previously, the compounds of the formula I are inhibitors of the enzyme 5-LO. […] J. Pharmacol., 1985, 84, 34P) which involve the use of a protein-LTB₄ conjugate produced using the procedure of Young et alia (Prostaglandins, 1983, 26(4), 605-613). The effects of a test compound on the enzyme cyclooxygenase (which is involved in the alternative metabolic pathway for arachidonic acid and gives rise to prostaglandins, thromboxanes and related metabolites) may be measured at the same time using the specific radioimmunoassay for thromboxane B₂(TxB₂) described by Carey and Forder (see above). This test provides an indication of the effects of a test compound against 5-LO and also cyclooxygenase in the presence of blood cells and proteins. It permits the selectivity of the inhibitory effect on 5-LO or cyclooxygenase to be assessed. • b) An ex vivo assay system, which is a variation of test a) above, involving administration to a group of rats of a test compound (usually orally as the suspension produced when a solution of the test compound in dimethylsulphoxide is added to carboxymethylcellulose), blood collection, heparinisation, challenge with A23187 and radioimmunoassay of LTB₄ and TxB₂. […]

Row | SMILES | oral ED₅₀ versus LTB₄ in test c) (5-LO [1]) | IC50 (5-LO [2])
1 | COC1(c2cc(F)cc(Sc3ccc(CON=C(C)C)cc3)c2)CCOCC1 [Example 1, acetone 0-{4-[5-fluoro-3-(4-methoxytetrahydropyran-4-yl)phenylthio]benzyl}oxime] | approximately 1 mg/kg | 150 nM
2 | COC1(c2cc(F)cc(Sc3ccc(C(C)ON=C(C)C)cc3)c2)CCOCC1 (stereo not drawn) [Example 2, acetone 0-{4-[5-fluoro-3-(4-methoxytetrahydropyran-4-yl)phenylthio)-α-methylbenzyl}oxime] | approximately 1.5 mg/kg | 90 nM
